Patent US20070135365A1, “Pharmaceutical composition for preventing or remedying cardiac hypertrophy and cardiovascular disease caused thereby” (priority 2003, published 2007)

How the values were obtained:
[1] = system: neonatal rat cardiomyocytes (NRC); experiment: Immunofluorescence of α-actinin: sarcomere structures (cardiac hypertrophy state) in drug-treated NRC; format: cell-based
Method: (§1) NRC prepared by a method similar to the method as described in (1) of Experiment 1 was moved to a glass culture plate (35 mm diameter) coated with poly-L-lysine, and was cultured over night (5% CO2 concentration, 37° C.) in DMEM without blood serum (manufactured by Nacalai Tesque). TPA was added to this to make a final concentration of 20 nM, and this was cultured a further 18 hours (5% CO2 concentration, 37° C.) (approximately 1×10^3 cells). After culturing, the cells obtained were rinsed 2 times with PBS, fixed by treating with 4 w/v % paraformaldehide for 30 minutes at room temperature, treated by soaking in PBS containing 0.25 v/v % Triton X-100 for 30 minutes at 4° C., and then incubated in blocking buffer solution (PBS containing 3 w/v % BSA, 2 v/v % FBS, 1 v/v % normal goat blood serum, and 0.03 v/v % Triton X-100).
(§2) This was rinsed 2 times in PBS, moved into PBS containing 0.3 v/v % Cy3-labeled anti-mouse IgG antibody, and 0.3 v/v % Cy2-labeled anti-rabbit IgG antibody (second antibody) (both manufactured by Amersham Pharmacia), and incubated for 1 hour at room temperature. The fluorescent signals of the cells were observed by a confocal laser scanning microscope LSM5 Pascal (manufactured by Carl Zeiss Inc.). Untreated NRC (None), which was not treated with TPA, was labeled with antibodies in the same manner as a contrast, and the results of observing the cell luminescence signals by confocal laser microscope (LSM5 Pascal) are indicated in FIG. 3B.
(§3) Specifically, NRC prepared by the same method as described above in (1) of Experiment 1 was moved to a glass culture plate (35 mm diameter) coated with poly-L-lysin, and was cultured over night (5% CO2 concentration, 37° C.) in DMEM without blood serum (manufactured by Nacalai Tesque). Five samples of the culture cells in question were used and added respectively to (1) 100 μM (final concentration, same hereinafter) NE (containing 2 μM propranol), (2) 100 μM AngII, (3) 20 nM LIF, (4) 100 μM NE (containing 2 μM propranol)+400 nM GF109203X (concretely, treated for 30 minutes by adding GF109203X, and then NE was added), (5) 20 nM LIF+400 nM GF109203X (concretely, treated for 30 minutes by adding GF109203X, and then LIF was added), and these were cultured a further 38 hours (5% CO2 concentration, 37° C.) (approximately 1×10^3 cells).
(§4) After culturing, the cells were rinsed 2 times with PBS, fixed by treating with 4 w/v % paraformaldehide for 30 minutes at room temperature, treated by soaking in PBS containing 0.25 v/v % Triton X-100 for 30 minutes at 4° C., and then incubated in blocking buffer solution (PBS containing 3 w/v % BSA, 2 v/v % FBS, 1 v/v % normal goat blood serum, and 0.03 v/v % Triton X-100). […] This was rinsed 2 times in PBS, moved into PBS containing 0.3 v/v % Cy3-labeled anti-mouse IgG antibody, and 0.3 v/v % Cy2-labeled anti-rabbit IgG antibody (second antibody) (both manufactured by Amersham Pharmacia), and incubated for 1 hour at room temperature. The fluorescent signals of the cells were observed by a confocal laser scanning microscope LSM5 Pascal (manufactured by Carl Zeiss Ltd.).

[2] = system: fully active PKD1 (phosphorylated PKD1); experiment: Immunofluorescence: intracellular distribution of fully active PKD1 in drug-treated NRC; format: cell-based, rat; conditions: for full activation (phosphorylation) of PKD1 and movement to sarcomere Z-discs: 100 μM NE (containing 2 μM propranol), 100 μM AngII or 20 nM LIF
Method: as §1, §2, §3, §4

[3] = system: PKD1; experiment: Immunoprecipitation kinase assay with Syntide-2 on PKD1 from drug-treated NRC; format: cell-based, rat; conditions: for phosphorylation activity of PKD1 (Syntide-2) relative to untreated NRC: NRC treated 20 minutes, 100 nM TPA, 100 μM NE (containing 2 μM propranol) or 20 nM LIF, n=9
Method: The ability of PKD1 to phosphorylate Syntide-2 (APLARTLSVAGLPGKK), which is a selective substance for PKD1, can be used as an index to assess PKD1 activity (Valverde, A. M., et al., Proc. Natl. Acad. Sci. USA, 91, 1994, p. 8572-8576).
Concretely, immunoprecipitation kinase assays using Syntide-2 as a substrate were conducted on the following NRC samples: NRC samples with cardiac hypertrophy induced by treating for 20 minutes respectively with (1) 100 nM TPA, (2) 100 μM NE, and (3) 20 nM LIF, and NRC samples treated for 20 minutes respectively with (4) 400 nM GF109203X (PKC inhibitor), (5) 20 nM TPA+400 nM GF109203X, (6) 100 μM NE+400 nM GF109203X, and (7) 20 nM LIF+400 nM GF109203X. The phosphorylation activity of PKD1 present in the various NRC samples was measured. In addition, as a control, the phosphorylation activity of PKD1 present in NRC that was not treated with anything (untreated NRC) was described and measured in the same way.
NRC prepared by the same method as described in (1) of Experiment 1 was cultured over night (5% CO2 concentration, 37° C.) in DMEM without blood serum (manufactured by Nacalai Tesque). To the cultured cells, (1) 100 nM TPA, (2) 100 μM NE (containing 2 μM propranol), (3) 20 nM LIF, (4) 400 nM GF109203X (PKC inhibitor), (5) 20 nM TPA+400 nM GF109203X, (6) 100 μM NE+400 nM GF109203X, and (7) 20 nM LIF+400 nM GF109203X were added respectively, and treated for 20 minutes. The cells obtained were treated with Lysis buffer solution A, and incubated for 60 minutes on ice together with anti-fully active PKD1 polyclonal antibody. This was treated with protein G Sepharose 4B, and protein bound to the resin (Protein G Sepharose 4B bound PKD1-anti-PKD1 antibody complex) was recovered. The PKD1 immunoprecipitate was rinsed 1 time in Lysis buffer solution A, and further rinsed 2 times with Lysis buffer solution A not containing NaF.
The PKD1 was eluted from PKD1 immunoprecipitate obtained by incubating in Lysis buffer solution A not containing NaF together with 100 μL of 0.5 mg/mL immunizing peptide. The immunizing peptide is an antigen peptide used in order to immunize test animals to create anti-fully active PKD1 polyconal antibody. When incubating this peptide with protein G Sepharose 4B bound PKD1-anti-PKD1 antibody complex, the aforementioned antigen peptide and the anti-PKD1 antibody bond, and as a result, PKD1 can be freed and obtained.
The eluted PKD1 (10 μL) was incubated for 5 minutes at 30° C. together with assay mixed solution (15 μL Tris/MgCl2 (100 mM Tris, 100 mM MgCl2), 5 μL ATP (800 μM), 0.2 μL ^32γ-ATP, and 40 μg Syntide-2). Next, the PKD1 phosphorylation activity was measured by liquid scintillation counter (n=9).

[4] = system: fully active PKD1 (phosphorylated PKD1); experiment: Immunofluorescence: intracellular distribution of fully active PKD1 in drug-treated NRC; format: cell-based, rat; conditions: cardiomyocytes in which EGF was allowed to act
[5] = system: PKD1; experiment: Western blotting of cytoplasm and cell membrane fractions of TPA-treated NRC; format: cell-based, rat; conditions: 100 nM TPA, 20 minutes, versus untreated
Method: The NRC prepared above was moved to non-serum DMEM (manufactured by Nacalai Tesque), and cultured overnight (5% CO2 concentration, 37° C.). Then, TPA was added to the culture to make a final concentration of 100 nM, and incubated for 20 minutes. Next, the cardiomyocytes were recovered and rinsed in PBS, subjected to bacteriolysis by treating with Lysis buffer solution (having the same composition as Lysis buffer solution A except that the Triton X-100 was 0.1%), centrifuged (15000 rpm, approximately 10 minutes), and fractioned into supernatant (cytoplasm fraction) and precipitate. The precipitate was further dissolved in Lysis buffer solution A. This was lightly separated by centrifuge, and the supernatant obtained was taken as the cell membrane fraction. As a control, NRC that was not treated with TPA was subjected to bacteriolysis, and the cytoplasm and cell membrane fractions were separated in the same manner as above (untreated substance). […]
Next, anti-mouse or anti-rabbit IgG bound with horseradish derived peroxidase (manufactured by Amersham Pharmacia) was used as the second antibody reagent, so that it is possible to observe the blotting results with chemical luminescence on X-ray film.

[6] = system: PKCε and PKD1; experiment: Immunoprecipitation assay and Western blotting for interaction of PKCε and PKD1 in NE-treated NRC; format: cell-based, rat; conditions: 100 μM NE (containing 2 μM propranol), versus NRC not treated with NE
Method: Primary NRC in culture prepared according to the method described in Experiment 1 (1) was treated with 100 μM NE (containing 2 μM propranol) in the same manner as in Experiment 3; the NE treated NRC in question was treated with Lysis buffer solution A; and 1 mL of cell extract (cell lysate) was obtained. […] of the cell extract was incubated for 60 minutes on ice together with anti-PKD1/2 monoclonal antibody; and this was then treated with protein G Sepharose 4B, and protein bound to the resin in question (anti-PKD1 antibody immunoprecipitate sample) was recovered. As indicated in experiment 1, no PKD2 was present in the NRC. Using anti-PKDε monoclonal antibody made in the same manner, anti-PKDε antibody immunoprecipitate sample was collected. As a control, 1 mL cell extract (cell lysate) of untreated NRC was obtained in the same way, and anti-PKDε antibody immunoprecipitate sample and anti-PKD1 antibody immunoprecipitate sample were prepared.
Next, Western blotting was conducted on the anti-PKCε antibody immunoprecipitate samples and the cell extract (cell lysate) obtained for the various NRC by using anti-PKD1/2 monoclonal antibody as the first antibody, and anti-mouse or anti-rabbit IgG bound with horseradish derived peroxidase (manufactured by Amersham Pharmacia) as the second antibody. […]

[7] = 38 hours, 100 μM NE (containing 2 μM propranol), 100 μM AngII or 20 nM LIF
[8] = 400 nM GF109203X for 30 minutes, then 100 μM NE (containing 2 μM propranol), 38 hours

Leukemia inhibitory factor [LIF]
induction of cardiac hypertrophy (formation of sarcomere structures, visualization of Z-discs) [1, 7]: inducing cardiac hypertrophy | full activation (phosphorylation) of PKD1 and movement to sarcomere Z-discs ([2]; 38 hours): no full activation (phosphorylation) of PKD1 and no movement of PKD1 to the vicinity of the sarcomere Z-discs | phosphorylation activity of PKD1 (Syntide-2) relative to untreated NRC [3]: hardly different from that of untreated NRC

Epidermal growth factor [EGF]
full activation of PKD1 and movement to sarcomere Z-discs [4]: also observed

Angiotensin II (DRVYIHPF; Angiotensin-2; UniProt P01019 25-32, looked up) [AngII, cardiac hypertrophy inducer]
induction of cardiac hypertrophy (formation of sarcomere structures, visualization of Z-discs) [1, 7]: induced cardiac hypertrophy | full activation (phosphorylation) of PKD1 and movement to sarcomere Z-discs ([2]; 38 hours): PKD1 was fully activated (phosphorylated)

CCCCCCCCCCCCCC(=O)O[C@@H]1[C@@H](C)[C@@]2(O)[C@@H](C=C(CO)C[C@]3(O)C(=O)C(C)=C[C@@H]23)[C@H]2C(C)(C)[C@]12OC(C)=O [TPA, 12-0-tetradecanoylphorbol 13-acetate]
induction of cardiac hypertrophy (formation of sarcomere structures, visualization of Z-discs) ([1]; 20 nM TPA, 18 hours): cardiac hypertrophy was induced | fully active PKD1 (phosphorylated PKD1) in cytoplasm and membrane fractions [5]: present in large amounts in the membrane fraction | activation of PKD1 and localization of fully active PKD1 ([2]; 20 nM TPA, 18 hours): the fully activated PKD1 moves to the sarcomere Z-disc region | phosphorylation activity of PKD1 (Syntide-2) relative to untreated NRC [3]: notably higher phosphorylation activity

CN(C)CCCn1cc(C2=C(c3c[nH]c4ccccc34)C(=O)NC2=O)c2ccccc21 [GF109203X]
effect on LIF-induced cardiac hypertrophy ([1]; 400 nM GF109203X for 30 minutes, then 20 nM LIF, 38 hours): a cardiac hypertrophy state was revealed | effect on NE-induced cardiac hypertrophy [1, 8]: no cardiac hypertrophy is generated | effect on NE-induced full activation of PKD1 and movement to sarcomere Z-discs [2, 8]: no fully activated PKD1 (phosphorylation) and no movement to sarcomere Z-discs were observed | intrinsic PKD1 activity with TPA plus PKC inhibitor ([3]; NRC, 20 minutes, 20 nM TPA+400 nM GF109203X): suppressed to the same level as that of the negative control | intrinsic PKD1 activity with NE plus PKC inhibitor ([3]; NRC, 20 minutes, 100 μM NE+400 nM GF109203X): suppressed to the same level as that of the negative control

NC[C@H](O)c1ccc(O)c(O)c1 [NE, Norepinephrine]
induction of cardiac hypertrophy (formation of sarcomere structures, visualization of Z-discs) [1, 7]: induced cardiac hypertrophy | full activation (phosphorylation) of PKD1 and movement to sarcomere Z-discs ([2]; 38 hours): PKD1 was fully activated (phosphorylated) | phosphorylation activity of PKD1 (Syntide-2) relative to untreated NRC [3]: notably higher phosphorylation activity | formation of complex of PKCε and PKD1 [6]: complex of PKCε and PKD1 were formed
